The target of experiment [1] is Receptor-interacting serine/threonine-protein kinase 2 (Homo sapiens) (UniProt O43353). Briefly: Inhibition of human recombinant RIPK2 at 15 nM in presence of ATP by radiometric assay relative to control.
Experiment [2] concerns the target Rho-associated protein kinase 1 (Homo sapiens) (UniProt Q13464). Briefly: Inhibition of human recombinant ROCK1 at 15 nM in presence of ATP by radiometric assay relative to control.
The target of experiment [3] is Tyrosine-protein kinase JAK2 (Homo sapiens) (UniProt O60674). Kind of experiment: Inhibition of human recombinant JAK2 at 15 nM in presence of ATP by radiometric assay relative to control.
Tyrosine-protein kinase JAK2 (Homo sapiens), sequence (O60674 whole entry): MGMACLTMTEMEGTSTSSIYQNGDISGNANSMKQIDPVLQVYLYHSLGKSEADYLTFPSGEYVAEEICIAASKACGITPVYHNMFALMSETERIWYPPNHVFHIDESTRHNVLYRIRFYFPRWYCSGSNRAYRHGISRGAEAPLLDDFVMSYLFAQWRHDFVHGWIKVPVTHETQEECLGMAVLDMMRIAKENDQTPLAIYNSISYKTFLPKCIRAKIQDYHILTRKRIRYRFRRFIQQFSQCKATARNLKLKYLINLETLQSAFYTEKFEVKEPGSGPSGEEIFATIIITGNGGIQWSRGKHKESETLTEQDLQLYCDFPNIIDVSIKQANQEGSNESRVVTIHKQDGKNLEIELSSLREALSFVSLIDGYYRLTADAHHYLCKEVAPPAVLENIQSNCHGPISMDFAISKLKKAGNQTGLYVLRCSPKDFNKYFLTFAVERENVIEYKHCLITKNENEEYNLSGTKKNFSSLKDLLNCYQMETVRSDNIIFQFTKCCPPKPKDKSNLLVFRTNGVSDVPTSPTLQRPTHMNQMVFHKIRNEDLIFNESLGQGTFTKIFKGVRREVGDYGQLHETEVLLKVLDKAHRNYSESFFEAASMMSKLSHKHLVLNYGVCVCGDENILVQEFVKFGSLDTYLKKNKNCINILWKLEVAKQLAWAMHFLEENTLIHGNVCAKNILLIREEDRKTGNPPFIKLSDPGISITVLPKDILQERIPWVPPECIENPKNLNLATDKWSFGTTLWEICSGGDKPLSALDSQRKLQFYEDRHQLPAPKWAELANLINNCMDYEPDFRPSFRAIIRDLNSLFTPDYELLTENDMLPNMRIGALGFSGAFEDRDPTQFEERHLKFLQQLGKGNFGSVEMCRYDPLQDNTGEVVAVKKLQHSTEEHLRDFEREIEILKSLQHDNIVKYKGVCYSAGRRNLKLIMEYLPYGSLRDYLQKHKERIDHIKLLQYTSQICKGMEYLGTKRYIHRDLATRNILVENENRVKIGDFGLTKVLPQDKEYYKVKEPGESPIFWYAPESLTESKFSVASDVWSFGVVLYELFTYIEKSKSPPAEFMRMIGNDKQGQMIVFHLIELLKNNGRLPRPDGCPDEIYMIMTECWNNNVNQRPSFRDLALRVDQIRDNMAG
In experiment [4] the target is T1, Bone morphogenetic protein receptor type-2 (Homo sapiens) (UniProt Q13873).
T1 sequence (whole entry): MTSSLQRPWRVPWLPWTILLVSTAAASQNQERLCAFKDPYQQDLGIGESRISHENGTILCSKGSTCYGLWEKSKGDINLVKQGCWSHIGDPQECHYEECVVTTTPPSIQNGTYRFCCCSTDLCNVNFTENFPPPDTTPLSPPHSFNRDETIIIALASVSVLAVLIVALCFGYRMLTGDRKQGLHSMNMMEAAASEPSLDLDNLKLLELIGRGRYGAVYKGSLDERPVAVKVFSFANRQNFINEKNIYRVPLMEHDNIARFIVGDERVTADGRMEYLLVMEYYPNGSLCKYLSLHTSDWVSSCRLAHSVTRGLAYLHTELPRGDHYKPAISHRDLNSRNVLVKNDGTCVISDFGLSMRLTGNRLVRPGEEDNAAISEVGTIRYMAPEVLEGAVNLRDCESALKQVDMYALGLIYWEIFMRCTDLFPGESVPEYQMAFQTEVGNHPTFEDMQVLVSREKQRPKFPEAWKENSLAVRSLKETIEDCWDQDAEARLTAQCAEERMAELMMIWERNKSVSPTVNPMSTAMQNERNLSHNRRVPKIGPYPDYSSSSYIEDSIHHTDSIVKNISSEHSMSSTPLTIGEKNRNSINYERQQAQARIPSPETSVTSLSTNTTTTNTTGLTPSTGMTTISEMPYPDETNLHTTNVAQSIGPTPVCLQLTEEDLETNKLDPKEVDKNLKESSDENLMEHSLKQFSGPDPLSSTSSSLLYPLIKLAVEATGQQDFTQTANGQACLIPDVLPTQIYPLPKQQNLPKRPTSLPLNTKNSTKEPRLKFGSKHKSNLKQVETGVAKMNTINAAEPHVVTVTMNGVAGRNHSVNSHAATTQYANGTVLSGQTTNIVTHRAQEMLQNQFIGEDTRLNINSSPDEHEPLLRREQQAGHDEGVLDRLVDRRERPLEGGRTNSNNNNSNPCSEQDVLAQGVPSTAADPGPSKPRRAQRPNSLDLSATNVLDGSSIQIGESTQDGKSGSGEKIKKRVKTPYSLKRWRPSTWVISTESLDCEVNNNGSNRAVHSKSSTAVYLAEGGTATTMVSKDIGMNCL
Briefly: Inhibition of human recombinant BMPR2 at 15 nM related to control ULK1.

Experiment [5] deals with Fibroblast growth factor receptor 4 (Homo sapiens) (UniProt P22455). Briefly: Inhibition of human recombinant FGFR4 at 15 nM in presence of ATP by radiometric assay relative to control.
Experiment [6] concerns the target Tyrosine-protein kinase Lck (Homo sapiens) (UniProt P06239). Briefly: Inhibition of human recombinant LCK at 15 nM related to control ULK1.
Experiment [7] addresses T2, Receptor-interacting serine/threonine-protein kinase 1 (Homo sapiens) (UniProt Q13546).
T2 sequence (whole entry): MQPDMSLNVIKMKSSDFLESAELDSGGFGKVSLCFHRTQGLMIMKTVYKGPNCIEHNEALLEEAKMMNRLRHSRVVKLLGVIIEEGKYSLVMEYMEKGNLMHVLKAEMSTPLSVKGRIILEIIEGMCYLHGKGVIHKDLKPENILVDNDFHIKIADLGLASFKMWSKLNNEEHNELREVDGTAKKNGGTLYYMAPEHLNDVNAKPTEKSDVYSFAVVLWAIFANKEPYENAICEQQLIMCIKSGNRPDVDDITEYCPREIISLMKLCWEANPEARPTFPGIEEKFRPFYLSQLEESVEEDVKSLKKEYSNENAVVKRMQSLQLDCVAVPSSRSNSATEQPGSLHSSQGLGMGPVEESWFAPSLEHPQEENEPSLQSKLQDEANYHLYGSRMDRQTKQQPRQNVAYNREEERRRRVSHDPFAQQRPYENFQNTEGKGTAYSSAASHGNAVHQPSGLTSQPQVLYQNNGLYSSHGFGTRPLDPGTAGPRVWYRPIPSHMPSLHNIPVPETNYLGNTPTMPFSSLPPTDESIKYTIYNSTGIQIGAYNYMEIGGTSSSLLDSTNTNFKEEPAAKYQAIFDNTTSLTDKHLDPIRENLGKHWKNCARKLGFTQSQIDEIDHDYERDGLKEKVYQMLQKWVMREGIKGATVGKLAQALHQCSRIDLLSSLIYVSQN
Kind of experiment: Inhibition of human recombinant RIPK1 at 40 nM in presence of ATP by radiometric assay relative to control.

Experiment [8] has as its target Cyclin-dependent kinase 7 (Homo sapiens) (UniProt P50613). Kind of experiment: Inhibition of human recombinant CDK7 at 40 nM related to control ULK1.
In experiment [9] the target is cAMP-dependent protein kinase catalytic subunit beta (Homo sapiens) (UniProt P22694). Briefly: Inhibition of human recombinant PKACbeta at 40 nM related to control ULK1.
Another experiment is filed under the species Homo sapiens. Briefly: Inhibition of human recombinant p70S6K at 40 nM related to control ULK1.
The next experiment concerns U2OS. Kind of experiment: Inhibition of autophagy in human U2OS cells assessed as BafA1-induced LC3B-II accumulation upto 5 uM preincubated with compound for 3 hrs followed by BafA1 induction and measured after 1 hr by immunoblotting analysis. Format: functional, cell-based. As to conditions: time 4.0 hrs. On the technique in general: Immunoblotting shows a protein as a band on a membrane.

For experiment [10], the target named is Calcium/calmodulin-dependent protein kinase type II subunit delta (Homo sapiens) (UniProt Q13557). Briefly: Inhibition of human recombinant CaMK2d at 500 nM in presence of ATP by radiometric assay relative to control.
Calcium/calmodulin-dependent protein kinase type II subunit delta (Homo sapiens), sequence (Q13557 whole entry): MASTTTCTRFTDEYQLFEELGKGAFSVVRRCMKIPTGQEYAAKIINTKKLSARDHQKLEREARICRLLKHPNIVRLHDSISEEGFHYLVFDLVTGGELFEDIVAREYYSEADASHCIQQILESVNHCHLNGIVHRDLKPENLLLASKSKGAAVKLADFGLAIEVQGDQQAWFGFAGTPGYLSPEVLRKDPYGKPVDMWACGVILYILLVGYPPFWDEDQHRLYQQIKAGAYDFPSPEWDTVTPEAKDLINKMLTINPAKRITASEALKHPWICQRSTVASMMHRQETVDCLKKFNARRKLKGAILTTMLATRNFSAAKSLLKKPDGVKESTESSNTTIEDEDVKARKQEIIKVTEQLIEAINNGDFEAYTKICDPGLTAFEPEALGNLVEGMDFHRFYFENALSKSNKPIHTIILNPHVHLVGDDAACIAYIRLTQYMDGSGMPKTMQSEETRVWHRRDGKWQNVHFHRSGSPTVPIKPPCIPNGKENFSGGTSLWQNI
Experiment [11] has as its target Tau-tubulin kinase 2 (Homo sapiens) (UniProt Q6IQ55). Kind of experiment: Inhibition of human recombinant TTBK2 at 500 nM related to control ULK1.
In experiment [12] the target is Serine/threonine-protein kinase 4 (Homo sapiens) (UniProt Q13043). Kind of experiment: Inhibition of human recombinant MST1 at 500 nM in presence of ATP by radiometric assay relative to control.
Serine/threonine-protein kinase 4 (Homo sapiens), sequence (Q13043 whole entry, looked up): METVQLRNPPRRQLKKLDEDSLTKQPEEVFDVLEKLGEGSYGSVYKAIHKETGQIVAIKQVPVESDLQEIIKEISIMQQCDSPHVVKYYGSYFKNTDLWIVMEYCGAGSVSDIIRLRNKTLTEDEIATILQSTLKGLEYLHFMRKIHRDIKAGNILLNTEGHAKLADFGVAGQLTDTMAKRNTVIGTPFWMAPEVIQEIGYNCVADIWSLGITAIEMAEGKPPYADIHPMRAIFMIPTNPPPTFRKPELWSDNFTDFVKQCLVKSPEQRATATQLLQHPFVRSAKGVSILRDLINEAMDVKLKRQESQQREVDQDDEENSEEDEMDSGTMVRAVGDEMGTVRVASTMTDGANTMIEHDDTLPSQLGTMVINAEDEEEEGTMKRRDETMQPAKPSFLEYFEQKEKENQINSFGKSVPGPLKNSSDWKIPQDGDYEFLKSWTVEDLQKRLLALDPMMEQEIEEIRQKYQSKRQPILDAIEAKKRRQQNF
Experiment [13] has as its target Interleukin-1 receptor-associated kinase 1 (Homo sapiens) (UniProt P51617). Kind of experiment: Inhibition of human recombinant IRAK1 at 500 nM related to control ULK1.

Active and inactive are the calls of the source. No cut-off for these calls is given here.

Cyclin-dependent kinase 7 (Homo sapiens), sequence (P50613 whole entry): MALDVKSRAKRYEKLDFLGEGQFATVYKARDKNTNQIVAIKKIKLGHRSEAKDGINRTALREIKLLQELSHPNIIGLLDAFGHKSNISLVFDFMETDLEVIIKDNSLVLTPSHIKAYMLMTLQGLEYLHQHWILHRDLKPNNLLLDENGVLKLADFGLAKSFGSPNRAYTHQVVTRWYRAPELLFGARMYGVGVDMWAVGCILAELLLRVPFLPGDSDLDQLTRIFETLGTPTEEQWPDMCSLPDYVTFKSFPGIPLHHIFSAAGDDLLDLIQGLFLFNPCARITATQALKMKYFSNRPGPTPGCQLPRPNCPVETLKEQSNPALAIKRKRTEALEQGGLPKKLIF
Rho-associated protein kinase 1 (Homo sapiens), sequence (Q13464 2-1354 limits assumed): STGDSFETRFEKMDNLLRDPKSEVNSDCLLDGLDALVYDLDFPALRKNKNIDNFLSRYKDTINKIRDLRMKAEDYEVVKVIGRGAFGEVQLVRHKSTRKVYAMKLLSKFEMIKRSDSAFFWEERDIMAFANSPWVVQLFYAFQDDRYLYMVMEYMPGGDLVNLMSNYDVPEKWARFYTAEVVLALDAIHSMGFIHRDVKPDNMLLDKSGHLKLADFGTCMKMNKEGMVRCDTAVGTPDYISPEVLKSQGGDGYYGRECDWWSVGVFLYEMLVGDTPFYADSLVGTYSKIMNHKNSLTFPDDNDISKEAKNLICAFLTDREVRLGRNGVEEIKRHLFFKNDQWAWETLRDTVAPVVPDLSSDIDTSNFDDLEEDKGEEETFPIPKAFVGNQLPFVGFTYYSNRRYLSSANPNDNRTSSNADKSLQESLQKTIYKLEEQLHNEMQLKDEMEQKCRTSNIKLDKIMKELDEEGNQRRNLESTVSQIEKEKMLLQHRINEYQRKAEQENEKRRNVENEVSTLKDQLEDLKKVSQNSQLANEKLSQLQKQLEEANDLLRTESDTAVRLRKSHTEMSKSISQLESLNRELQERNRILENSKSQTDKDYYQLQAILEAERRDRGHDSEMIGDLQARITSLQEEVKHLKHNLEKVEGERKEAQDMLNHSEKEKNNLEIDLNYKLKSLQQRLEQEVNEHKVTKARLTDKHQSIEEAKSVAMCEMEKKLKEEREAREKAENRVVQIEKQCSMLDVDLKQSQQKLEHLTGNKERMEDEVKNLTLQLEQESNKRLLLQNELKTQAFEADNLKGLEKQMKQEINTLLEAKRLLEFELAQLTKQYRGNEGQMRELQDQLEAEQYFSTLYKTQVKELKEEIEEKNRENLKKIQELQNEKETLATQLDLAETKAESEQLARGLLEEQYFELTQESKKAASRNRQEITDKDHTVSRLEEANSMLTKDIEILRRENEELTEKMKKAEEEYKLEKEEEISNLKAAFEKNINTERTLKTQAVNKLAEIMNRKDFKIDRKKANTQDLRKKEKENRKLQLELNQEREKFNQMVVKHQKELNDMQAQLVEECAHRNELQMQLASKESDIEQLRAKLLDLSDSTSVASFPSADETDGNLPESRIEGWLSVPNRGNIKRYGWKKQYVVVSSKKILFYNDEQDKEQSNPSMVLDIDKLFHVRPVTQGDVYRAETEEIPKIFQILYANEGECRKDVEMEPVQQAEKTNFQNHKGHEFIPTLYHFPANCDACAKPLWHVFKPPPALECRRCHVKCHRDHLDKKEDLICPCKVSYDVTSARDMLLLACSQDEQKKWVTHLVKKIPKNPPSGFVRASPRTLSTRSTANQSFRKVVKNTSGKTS
Tyrosine-protein kinase Lck (Homo sapiens), sequence (P06239 2-509 limits assumed): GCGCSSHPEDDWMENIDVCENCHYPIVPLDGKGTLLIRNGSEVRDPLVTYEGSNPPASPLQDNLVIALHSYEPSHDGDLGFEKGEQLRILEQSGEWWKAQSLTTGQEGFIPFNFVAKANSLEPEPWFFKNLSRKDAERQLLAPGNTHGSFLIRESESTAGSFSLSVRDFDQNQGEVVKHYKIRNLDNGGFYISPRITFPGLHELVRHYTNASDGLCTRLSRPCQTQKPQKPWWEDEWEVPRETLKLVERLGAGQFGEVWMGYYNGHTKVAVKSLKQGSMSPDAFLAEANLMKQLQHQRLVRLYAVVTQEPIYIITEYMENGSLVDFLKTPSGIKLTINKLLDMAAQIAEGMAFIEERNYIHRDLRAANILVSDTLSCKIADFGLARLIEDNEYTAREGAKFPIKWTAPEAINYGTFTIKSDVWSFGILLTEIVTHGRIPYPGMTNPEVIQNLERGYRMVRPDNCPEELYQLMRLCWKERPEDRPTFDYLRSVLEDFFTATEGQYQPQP
Interleukin-1 receptor-associated kinase 1 (Homo sapiens), sequence (P51617 whole entry, looked up): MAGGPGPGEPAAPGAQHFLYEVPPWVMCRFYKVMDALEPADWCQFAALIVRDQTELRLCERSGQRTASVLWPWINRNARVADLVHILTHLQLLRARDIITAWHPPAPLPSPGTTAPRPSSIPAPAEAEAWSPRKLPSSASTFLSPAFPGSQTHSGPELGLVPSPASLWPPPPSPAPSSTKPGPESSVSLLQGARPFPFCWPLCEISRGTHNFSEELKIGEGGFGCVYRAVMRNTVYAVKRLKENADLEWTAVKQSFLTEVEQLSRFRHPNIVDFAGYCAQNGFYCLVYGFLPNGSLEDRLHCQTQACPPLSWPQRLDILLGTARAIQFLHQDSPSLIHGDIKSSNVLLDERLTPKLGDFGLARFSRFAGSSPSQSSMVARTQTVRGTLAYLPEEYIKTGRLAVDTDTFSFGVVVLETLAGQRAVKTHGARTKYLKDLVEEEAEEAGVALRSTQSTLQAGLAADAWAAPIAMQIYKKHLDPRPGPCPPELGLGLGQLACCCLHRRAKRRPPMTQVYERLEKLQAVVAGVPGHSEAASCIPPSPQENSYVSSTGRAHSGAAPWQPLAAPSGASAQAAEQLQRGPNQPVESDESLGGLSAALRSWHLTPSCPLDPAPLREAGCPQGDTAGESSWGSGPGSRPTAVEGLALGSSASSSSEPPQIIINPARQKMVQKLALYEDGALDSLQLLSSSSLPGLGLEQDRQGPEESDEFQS

One may read the inhibition as the relative decrease from the control value, in per cent. `CC(C)[C@H](NC(=O)c1cc(-c2cnn3cc(-c4ccc(OCCN5CCCCC5)cc4)cnc23)cs1)C(F)(F)F`: the inhibition stood at 10% in experiment [1], 8% in experiment [2], 6% in experiment [3] and 0% in experiment [5]. The figures for the fold change (FC) in experiment [4] and in experiment [6] were 0.06 and 0.13, respectively.
`O=C(N[C@@H](C1CC1)C(F)(F)F)c1cc(-c2cnn3cc(-c4ccc(F)cc4)cnc23)cs1`: in [7], the inhibition was determined as 2%. For the same molecule, the values for the fold change (FC) (in experiment [8]; in experiment [9]; in the experiment listed under Homo sapiens) were 0.32, 0 and 0.03, respectively. Also, the inhibition result in the experiment on U2OS was “Active”.
On to `CNC(=O)c1ccccc1Oc1nc(Nc2cc(OC)c(OC)c(OC)c2)ncc1Br`, for which the inhibition in experiment [10] turned out to be 9%; in [12], 0%. Besides, the figures for the fold change (FC) in experiment [11] and in experiment [13] were 0.08 and 0.2, respectively.

The values are drawn from ChEMBL document CHEMBL5653631, “A Potent and Selective ULK1 Inhibitor Suppresses Autophagy and Sensitizes Cancer Cells to Nutrient Stress” (iScience, 2018).
